Several values for one entry are separate records, joined by “and”; a condition that tells them apart may be missing. Identical values can stand only once. Like-named read-outs stand apart in the source and are kept apart here. Ends that are not written are not given here.
Legend:
recombinant DbpA = assay: Delayed-type hypersensitivity (DTH) to DbpA, footpad swelling in immunized mice; assay type: in vivo, B. burgdorferi; settings: C3H/HeJ mice immunized with 20 μg, challenged with 2 μg recombinant DbpA in footpad, 24 h
Experimental: (§1) Mice were immunized with recombinant DbpA (SEQ ID 1), P2 (SEQ ID 3), P4 (SEQ ID 5), P5 (SEQ ID 6), P4/P5 (SEQ ID 5/SEQ ID 6), P9 (SEQ ID 10), or the corresponding lysine modified counterparts (P2 Mod, P4 Mod, P5 Mod or P9 Mod) using the immunization schedule established by Hanson (11). Briefly, mice were immunized with 20 μg of protein or peptide in complete Freund's adjuvant (CFA) (Week 1), boosted at week 4 with the same dose in incomplete Freund's adjuvant (IFA) and infected at week 6.
Native C3H/HeJ mice immunized with DbpA (SEQ ID 1), P2 (SEQ ID 3), P4 (SEQ ID 5), P5 (SEQ ID 6), P4/P5 (SEQ ID 5/SEQ ID 6), P9 (SEQ ID 10), or the corresponding lysine modified counterparts (P2 Mod, P4 Mod, P5 Mod or P9 Mod) were challenged with 2 μg of recombinant DbpA in PBS (50 μl/footpad) 7 weeks after the initial immunization. All footpads were measured before and 24 h after challenge using a spring-loaded micrometer (Mitutoyo, Tokyo, Japan) as described (23). The mice were anesthetized as described above during footpad measurements and injections. Swelling was determined by subtracting the footpad measurements before challenge from those taken 24 h after challenge.
DTH is an in vivo method of testing T cell-dependent immune responses that are manifested by inflammation at the site of antigenic challenge. Mice immunized with DbpA (SEQ ID 1), P2 (SEQ ID 3), P4 (SEQ ID 5), P5 (SEQ ID 6), P4/P5 (SEQ ID 5/SEQ ID 6) combined, P9 (SEQ ID 10), or the corresponding lysine-modified peptides were challenged in the footpad with 2 μg of recombinant DbpA (SEQ ID 1). Footpad measurements were taken before and after challenge as described above. DbpA (SEQ ID 1)-immunized mice developed a significant footpad swelling of 53.3±3.5 (not shown) compared to mice immunized with adjuvant alone or naive mice receiving only the DbpA (SEQ ID 1) challenge. Peptide-immunized mice, with the exception of P2 (SEQ ID 3), also developed a significant DTH response to DbpA (SEQ ID 1) compared to the lysine-modified controls.

[1] = tested on: B. burgdorferi strain B31; assay: Arthritis assessment, histopathology of hind tibiotarsal joints of immunized infected mice; assay type: in vivo; settings: for Mean Arthritis Rating: severity score 0-4 by neutrophil infiltrate; for Mean Arthritis Rating / % Incidence (arthritis): day 14 post infection; for % Incidence (arthritis): immunized mice, tibiotarsal joint histology
Experimental: as §1
Mice (15 mice/group) were anesthetized with Metofane (methoxyflurane; Pitman-Moore, Mundelein, Ill.) and 10 mice/ group were infected i.d. at the base of the tail with 10^4 Borrelia in 100 μl of media 6 six weeks after the first immunization. The remaining 5 mice/group were tested for a DTH response to recombinant DbpA. Following infection, mice were bled 7 and 14 days postinfection. Serum was collected for antibody analysis and blood cultured for the detection of live spirochetes by inoculating 5 ml of BSK II medium with 50 μl of blood from each infected mouse and cultured for 2 weeks at 34° C. as described above. Also on day 14 postinfection, mice were sacrificed and one hind tibiotarsal joint, heart, bladder, and a 3 mm skin biopsy from the ear were aseptically removed and inoculated into separate tubes containing 6 ml of BSK II medium with antibiotics (50 μg/ml rifampacin and 100 μg/ml phosphomycin (Sigma), and incubated for 2 weeks at 34° C. as described above. Evidence of arthritis was determined by histopathological examination of formalin-fixed hind tibiotarsal joint samples.
Evidence of arthritis was determined by histopathological examination of formalin-fixed hind tibiotarsal joint samples. Tissues for histological examination were embedded in paraffin and stained with hematoxylin and eosin. All sections were examined without knowledge of the vaccination status of the mouse. Arthritis was scored by one of two methods. A positive/negative assessment was used, as well as assignment of an arthritis severity score. Joints were scored according to the levels of infiltrate (neutrophils) as follows: 0, no arthritis, 1, minimal or rare (≦10% tissue involvement); 2, mild (10-20%); […]; and 4, severe (>50%).
A similar trend was also observed for joints examined for arthritis (Table I). DbpA-(SEQ ID 1), P4-(SEQ ID 5), and P5-(SEQ ID 6) immunized mice had the lowest arthritis ratings (0.2, 1.2, and 0.4, respectively) and lowest arthritis incidence (20, 60, and 20%, respectively).

decorin = target: T1, decorin (Bos taurus, UniProt P21793); assay: Inhibition ELISA: decorin attachment to DbpA-coated wells; assay type: binding, bovine; settings: 5 μg inhibitor pre-incubated with biotin-conjugated decorin, FIG. 3
T1 construct: Decorin from bovine fetal skin was purified and stored in 4 M guanidine hydrochloride; from tissue; host or cells: decorin from bovine fetal skin; DbpA made in E. coli JM101
Experimental: Immulon-1 microtiter plate wells were coated with 0.4 μg of DbpA in 50 μl of PBS over night at 4° C. The wells were washed and then blocked as described above. During the blocking step, 0.12 μg/ml of biotin-conjugated decorin was pre-incubated at 37° C. with 5 μg of each DbpA-derived peptide or DbpA. After washing, 100 μl of the biotin conjugated decorin/inhibitor mixture was added to the wells and incubated for 1 h. After washing, the wells were incubated with AP-conjugated streptavidin and developed as described above.
Decorin from bovine fetal skin was purified and stored in 4 M guanidine hydrochloride at −80° C. and dialyzed extensively against PBS before use. Decorin was labeled with digoxigenin-3-O-methylcarbonyl-ε-aminocaproic acid-N-hydroxy-succinimide ester (digoxigenin) (Boehringer Mannheim, Indianapolis. Ind.) according to the manufacturer's instructions and stored at −20° C. To label decorin with biotin, 7.5 mg of NHS-LC-Biotin (sulfosuccinimidyl-6-(biotinamido) hexanoate) (Pierce, Rockford, Ill.) was dissolved in 100 μl of dimethyl sulfoxide and combined with 0.5 mg of decorin and 0.5 ml of 0.2 M sodium borate (pH 8.0) in a total reaction volume of 1 ml.
Confirmation of the critical binding sites in DbpA for decorin and of the biophysical stability of these peptides was tested in an inhibition ELISA. DbpA, peptides P2-P9, chemically modified peptides P2 Mod-P9 Mod, and an irrelevant peptide from the Staphylococcus aureus collagen-binding adhesin, CNA4 (OSKITVDNTKNTIDVTIQG) (SEQ ID 36) were used as inhibitors of decorin attachment to DbpA-coated wells.

[2] = tested on: B. burgdorferi strain B31; assay: Joint cultures for spirochetes after infection of immunized mice; assay type: in vivo; settings: immunized C3H/HeJ mice, joints 14 days post infection
Experimental: as §1
Low-passage B. burgdorferi strain B31 (passage 5) was used in this study and cultured in BSK II (Barbour-Stoenner-Kelly) medium at 34° C. (22). Bacterial cultures were incubated in CO2-enriched atmosphere in a GasPak chamber (BBL, Baltimore, Md.) containing BBL GasPak Plus envelopes and a GasPak anaerobic indicator (Beckton dickinson, Cockeysville, Md.) until the cells reached log phase. Bacterial counts were determined using dark field microscopy and a Petroff-Hausser chamber.
Mice (15 mice/group) were anesthetized with Metofane (methoxyflurane; Pitman-Moore, Mundelein, Ill.) and 10 mice/ group were infected i.d. at the base of the tail with 10^4 Borrelia in 100 μl of media 6 six weeks after the first immunization. The remaining 5 mice/group were tested for a DTH response to recombinant DbpA. Following infection, mice were bled 7 and 14 days postinfection. […]

[3] = target: T2, decorin from bovine fetal skin (bovine), P21793; assay: inhibition ELISA: biotin-conjugated decorin pre-incubated with 5 ug peptide, added to DbpA-coated wells
T2 chain: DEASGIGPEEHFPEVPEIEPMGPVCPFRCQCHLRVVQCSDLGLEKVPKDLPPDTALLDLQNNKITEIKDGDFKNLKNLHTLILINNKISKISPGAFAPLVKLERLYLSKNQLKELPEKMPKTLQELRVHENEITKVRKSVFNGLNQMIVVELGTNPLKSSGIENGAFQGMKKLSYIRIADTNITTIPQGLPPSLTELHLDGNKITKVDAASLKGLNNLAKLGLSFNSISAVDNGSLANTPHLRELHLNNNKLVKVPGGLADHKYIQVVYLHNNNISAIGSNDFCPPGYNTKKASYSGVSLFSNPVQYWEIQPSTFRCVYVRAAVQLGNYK

[4] = target: T2, decorin from bovine fetal skin …; assay: as above

**Q.** For “P2: overlapping synthetic 25 amino acid peptide of recombinant DbpA, contains a cystine residue (LLISCGLTGATKIKLESSAKAIVD) [Peptide P2]”, which “DTH response to DbpA (in words)” value (recombinant DbpA) is on record?
**A.** Its value is “no response”.

**Q.** What about the “Mean Arthritis Rating” value [1] of the same molecule?
**A.** The value was 1.4.

**Q.** What about the “inhibition of decorin attachment to DbpA-coated wells” value (from here on “inhibition of decorin attachment”) (decorin) of the same molecule?
**A.** Its value is 44% and 42%.

**Q.** “P4 Mod: lysine modified counterpart of P4 (DAFKDKKTGSGVSENPFILEAKVRA; also: chemically modified lysines)” was tested. Which “% Incidence (arthritis)” value [1] did it give?
**A.** The value was 2.0%.

**Q.** What about the “Mean Arthritis Rating” value [1] of the same molecule?
**A.** The value was 2.0.

**Q.** Which “DTH response to DbpA (in words)” value (recombinant DbpA) does the source give for “P4: synthetic 25 amino acid DbpA peptide that maps to the K82 region (DAFKDKKTGSGVSENPFILEAKVRA) [Peptide P4]” here?
**A.** Its value is “response greater than that of control groups but with less intensity”.

**Q.** What about the “% Incidence (arthritis)” value [1] of the same molecule?
**A.** Its value is 60%.

**Q.** What about the “Mean Arthritis Rating” value [1] of the same molecule?
**A.** The value was 1.2.

**Q.** And the “inhibition of decorin attachment” value (decorin)?
**A.** Its value is 64%.

**Q.** Which results are given for “P5 Mod: lysine modified counterpart of P5 (AKVRATTVAEKFVIAIEEEATKLKE; also: chemically modified lysines)”?
**A.** % Incidence (arthritis) [1]: 100%; Mean Arthritis Rating [1]: 3.2

**Q.** What does the source list for “P5: synthetic 25 amino acid DbpA peptide that maps to the K82 region (AKVRATTVAEKFVIAIEEEATKLKE) [Peptide P5]”?
**A.** DTH response to DbpA (in words) (recombinant DbpA): significant responses; arthritis incidence and severity (in words) ([1]; immunized infected mice): lowest; % Incidence (arthritis) [1]: 20%; Mean Arthritis Rating [1]: 0.4; positive joint cultures [2]: 60%; inhibition of decorin attachment to DbpA-coated wells (decorin): 92%

**Q.** What does the source list for “P9 Mod: lysine modified counterpart of P9 (REKLQRVHKKNQDTLKKKNTEDSTAKS; also: chemically modified lysines)”?
**A.** % Incidence (arthritis) [1]: 80%; Mean Arthritis Rating [1]: 2.0

**Q.** Which “DTH response to DbpA (in words)” value (recombinant DbpA) does the source give for “P9: synthetic 25 amino acid DbpA peptide containing K163 and K170 (REKLQRVHKKNQDTLKKKNTEDSTAKS) [Peptide P9]” here?
**A.** The value was “response greater than that of control groups but with less intensity”.

**Q.** And the “Mean Arthritis Rating” value [1]?
**A.** Its value is 1.25.

**Q.** What about the “inhibition of decorin attachment” value (decorin) of the same molecule?
**A.** The value was 42% and 43%.

**Q.** DAFKDKKTGSGVSENPFILEAKVRA (modifications not checked) [DbpA-derived synthetic peptide P4] was tested. Which inhibition of decorin attachment to DbpA-coated wells [3] did it give?
**A.** The inhibition of decorin attachment to DbpA-coated wells was 64%.

**Q.** REKLQRVHKKNQDTLKKKNTEDSTAKS (modifications not checked) [DbpA-derived synthetic peptide P9] was tested. Which inhibition of decorin attachment to DbpA-coated wells [3] did it give?
**A.** Its inhibition of decorin attachment to DbpA-coated wells is 42%.

**Q.** And the inhibition of decorin attachment to DbpA-coated wells [4]?
**A.** The inhibition of decorin attachment to DbpA-coated wells was 43%.

**Q.** Which inhibition of decorin attachment to DbpA-coated wells [3] does the source give for AKVRATTVAEKFVIAIEEEATKLKE (modifications not checked) [DbpA-derived synthetic peptide P5] here?
**A.** The inhibition of decorin attachment to DbpA-coated wells was 92%.

Source: patent publication US6517838B1, “Decorin binding protein essential peptides and methods of use” (The Texas A&M University System, priority 2000, dated 2003)
